The target of the test is RIPK1 recombination protein (Homo sapiens (Human), UniProt Q13546). The experiment in a line: RIPK1 kinase activity assay (ADP-Glo). Format: biochemical. The conditions noted are these: RIPK1 kinase activity, ADP-Glo, 10 μM ATP. The method in brief:
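GST-purified recombinant human RIPK1 (40 nM final) with 10 μM ATP in NaCl/MgCl2/BSA/CHAPS/DTT kinase buffer, 3 h at room temperature; compounds at 10 to 0.005 μM (3-fold). ADP formed measured by ADP-Glo luminescence; inhibition normalized to no-enzyme and no-inhibitor controls, IC50 by curve fit.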
A general note: ADP-Glo turns the ADP formed in a reaction into a luminescent signal.

The results in this text go back to US20240002388A1, “PYRIMIDINONE COMPOUNDS AND USES THEREOF” (HUTCHISON MEDIPHARMA LIMITED, priority 2020, published 2024).

pIC50: −log10 of the molar value.

Sequence of RIPK1 recombination protein (Q13546 other isoform, or with tags, fused parts or gaps): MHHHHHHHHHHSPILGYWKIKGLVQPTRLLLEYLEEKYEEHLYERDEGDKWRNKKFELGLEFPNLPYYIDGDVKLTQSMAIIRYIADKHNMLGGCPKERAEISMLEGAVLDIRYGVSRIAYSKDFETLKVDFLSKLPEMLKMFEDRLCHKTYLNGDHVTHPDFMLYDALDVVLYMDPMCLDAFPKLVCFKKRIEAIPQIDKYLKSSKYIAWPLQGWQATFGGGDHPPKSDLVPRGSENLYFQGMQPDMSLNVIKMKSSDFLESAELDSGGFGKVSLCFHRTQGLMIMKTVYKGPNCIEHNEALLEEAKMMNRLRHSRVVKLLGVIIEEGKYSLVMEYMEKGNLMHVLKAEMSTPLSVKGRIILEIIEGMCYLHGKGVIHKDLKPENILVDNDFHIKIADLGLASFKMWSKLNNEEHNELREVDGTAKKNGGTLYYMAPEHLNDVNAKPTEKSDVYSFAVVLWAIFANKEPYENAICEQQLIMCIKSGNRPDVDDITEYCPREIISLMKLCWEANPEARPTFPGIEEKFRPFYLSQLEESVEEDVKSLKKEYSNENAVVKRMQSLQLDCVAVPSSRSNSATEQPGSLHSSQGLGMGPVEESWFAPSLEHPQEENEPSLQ

For orientation: pIC50 means the negative decadic logarithm of the IC50, by convention in mol/L. As to `CC(C)n1ncc2cnc(C(=O)NC3(c4ccc(-c5cncn(CC6CC6)c5=O)cc4F)CC3)nc21` [Compound 74], the pIC50 is 7.21.

On to `CC(C)n1ncc2cnc(C(=O)NC3(c4ccc(-c5cncn(CC6CC6)c5=O)c(F)c4)CC3)nc21` [Compound 75], for which the pIC50 was 7.29.

`C[C@@H](n1cncc(-c2ccc(C3(NC(=O)c4ncc5cnn(CC6CC6)c5n4)CC3)c(F)c2)c1=O)C(F)(F)F` [Compound 76]: the negative-log IC50 (pIC50) is 7.29.

For the molecule `CC(C)n1ncc2cnc(C(=O)NC3(c4ccc(-c5cncn(C6CCOCC6)c5=O)cc4)CC3)nc21` [Compound 77], the negative logarithm of the IC50 (pIC50) was 7.38.

Consider `CC(C)n1ncc2cnc(C(=O)NC3(c4ccc(-c5cncn(C6(C)CC6)c5=O)cc4)CC3)nc21` [Compound 78], for which the pIC50 was 7.48.

On to `CC(C)n1ncc2cnc(C(=O)NC3(c4ccc(-c5cncn(C6(C)CCC6)c5=O)cc4)CC3)nc21` [Compound 79], for which the pIC50 is 7.68.

On to `CC(C)n1ncc2cnc(C(=O)NC3(c4ccc(-c5cncn([C@H](C)C6CC6)c5=O)cc4)CC3)nc21` [Compound 84, (R)—N-(1-(4-(1-(1-cyclopropylethyl)-6-oxo-1,6-dihydropyrimidin-5-yl)phenyl)cyclopropyl)-1-i-propyl-1H-pyrazolo[3,4-d]pyrimidine-6-carboxamide], for which the pIC50 is 7.35.

Consider `CC(C)n1ncc2cnc(C(=O)NC3(c4ccc(-c5cncn([C@@H](C)C6CC6)c5=O)cc4)CC3)nc21` [Compound 85, (S)—N-(1-(4-(1-(1-cyclopropylethyl)-6-oxo-1,6-dihydropyrimidin-5-yl)phenyl)cyclopropyl)-1-i-propyl-1H-pyrazolo[3,4-d]pyrimidine-6-carboxamide], for which the negative-log IC50 (pIC50) was 7.52.

For `CC(C)n1ncc2cnc(C(=O)NC3(c4ccc(-c5cncn(CC6(C)CC6)c5=O)cc4)CC3)nc21` [Compound 86], the negative logarithm of the IC50 (pIC50) is 7.85.

Take `CC(C)n1ncc2cnc(C(=O)NC3(c4ccc(-c5cncn([C@H]6C[C@H](F)C6)c5=O)cc4)CC3)nc21` [Compound 87, N-(1-(4-(1-(trans-3-fluorocyclobutyl)-6-oxo-1,6-dihydropyrimidin-5-yl)phenyl)cyclopropyl)-1-i-propyl-1H-pyrazolo[3,4-d]pyrimidine-6-carboxamide]: the negative-log IC50 (pIC50) is 7.39.

For `CC(C)n1ncc2cnc(C(=O)NC3(c4ccc(-c5cncn([C@H]6C[C@@H](F)C6)c5=O)cc4)CC3)nc21` [Compound 88, N-(1-(4-(1-(cis-3-fluorocyclobutyl)-6-oxo-1,6-dihydropyrimidin-5-yl)phenyl)cyclopropyl)-1-i-propyl-1H-pyrazolo[3,4-d]pyrimidine-6-carboxamide], the pIC50 was 7.39.

In the case of `CC(C)n1cncc(-c2ccc(C3(NC(=O)c4ncc5cnn([C@H](C)C6CC6)c5n4)CC3)cc2)c1=O` [Compound 89, (R)-1-(1-cyclopropylethyl)-N-(1-(4-(1-i-propyl-6-oxo-1,6-dihydropyrimidin-5-yl)phenyl)cyclopropyl)-1H-pyrazolo[3,4-d]pyrimidine-6-carboxamide], the negative-log IC50 (pIC50) was 7.32.

Turning to `CC(C)n1cncc(-c2ccc(C3(NC(=O)c4ncc5cnn([C@@H](C)C6CC6)c5n4)CC3)cc2)c1=O` [Compound 90, (S)-1-(1-cyclopropylethyl)-N-(1-(4-(1-i-propyl-6-oxo-1,6-dihydropyrimidin-5-yl)phenyl)cyclopropyl)-1H-pyrazolo[3,4-d]pyrimidine-6-carboxamide], the negative-log IC50 (pIC50) was 7.27.

As for `CC(C)n1cncc(-c2ccc(C3(NC(=O)c4ncc5cnn(C(C)C)c5n4)CC3)c(F)c2Cl)c1=O` [Compound 91], the pIC50 was 7.14.

Consider `CC(C)n1cncc(-c2cc(F)c(C3(NC(=O)c4ncc5cnn(C(C)C)c5n4)CC3)c(F)c2)c1=O` [Compound 92], for which the pIC50 is 6.98.

Consider `CC(C)n1cncc(-c2ccc(C3(NC(=O)c4ncc5cnn(C(C)C)c5n4)CC3)c(F)c2F)c1=O` [Compound 93], for which the pIC50 was 7.46.

For `CC(C)n1ncc2cnc(C(=O)NC3(c4cc(F)c(-c5cncn(CC6CC6)c5=O)cc4F)CC3)nc21` [Compound 94], the negative logarithm of the IC50 (pIC50) is 7.57.

For the molecule `CC(C)n1ncc2cnc(C(=O)NC3(c4ccc(-c5cncn(CC6CC6)c5=O)c(F)c4F)CC3)nc21` [Compound 95], the pIC50 was 7.55.
